From publication PMC8691750, “Euphorbia Factor L2 ameliorates the Progression of K/BxN Serum-Induced Arthritis by Blocking TLR7 Mediated IRAK4/IKKβ/IRF5 and NF-kB Signaling Pathways” (Frontiers in Pharmacology, 2021) come the findings set out here.

In series [1] the test system is TLR7 (R837) / TLR3 (poly:IC) induced cytokine production in BMDMs. Description: ELISA of IL-1β and IL-6 in supernatant of R837 and/or poly:IC stimulated BMDMs. It is filed as cell-based, C57BL/6 mice. As to the method: (§1) RAW264.7 cells, a mouse macrophage cell line, were cultured in DMEM medium containing 10% fetal bovine serum (FBS), 1% penicillin-streptomycin and maintained at 37 °C in 5% CO2 humidified air. Bone marrow-derived macrophages (BMDMs) generation was performed as following description. In brief, bone marrow cells were harvested from tibias and femurs of C57BL/6 mice and differentiated for 7 days in DMEM medium supplemented with 10% FBS, 1% penicillin-streptomycin and 50 ng/ml M-CSF. For human peripheral blood mononuclear cells (PBMCs) preparation, 5 ml peripheral venous blood was obtained from healthy donors in West China Hospital. PBMCs were isolated with Human Lymphocyte Separation Medium (LTS1077, Tian Jing, China) according to the manufacturer’s instructions. The experimental protocols were performed according to the approved guidelines established by the Institutional Human Research Subject Protection Committee of the Ethics Committee of West China Hospital, Sichuan University, China.
RAW264.7 cells (5×10^5/ml), BMDMs (5×10^5/ml) and PBMCs (2×10^6/ml) were plated in 96-well plates and incubated overnight. […] For the anti-inflammatory molecular mechanism study, RAW264.7 cells (5×10^5/ml) were plated in 96-well plates and stimulated with R837 (20 μg/ml) with or without the addition of NF-κB inhibitor (JSH-23, […]) for 24 h. After 24 h, the culture supernatant was collected for cytokines measurements.
(§2) IL-4, IL-17A and TNF-α in sera from different group mice were measured using CBA Multiplex kit (BD, United States). The concentrations of IL-1β and IL-6 in serum or supernatant were detected by ELISA Kit (MULTI SCIENCES, China) according to the manufacturers’ instructions.

Series [2] relates to TNF-α, IL-4, IL-17A, IL-1β and IL-6 in serum. In words: Cytokines in sera of STA mice (CBA Multiplex kit, ELISA). It is filed as in vivo, C57BL/6 mice. As to the method:
K/BxN serum was collected from K/BxN mice at 8 weeks of age, pooled, aliquoted and stored at -20 °C. K/BxN serum-transfer arthritis (STA) model was induced by intraperitoneal (i.p.) application of 150 μL of serum at day 0. Clinical score for arthritis severity was assessed using a 0–4 point scale for each paw at various time points (0–16 total score) as described previously ([Luo et al., 2011]). 8-week old male C57BL/6 mice were purchased from Dashuo Animal Center (China, Chengdu), maintained at 25°C, and exposed to 12-h light and dark cycles. Mice were fed with standard laboratory chow and water with 1 week of acclimatization. Naive mice were used as the control group. Except the control mice, all mice were i. p. injected with 150 μL of serum, then randomly divided into the following groups and treated with different compounds daily for the consecutive 8 days: 1) STA group; 2) Solvent control group, mice were gavaged with the solvent; 3) Dexamethasone (DEX) group, mice were gavaged with 30 mg/kg DEX; 4) EFL2 group 1, mice were gavaged with 40 mg/kg EFL2; 5) EFL2 group 2, mice were intraperitoneally injected with 15 mg/kg EFL2; 6) EFL2 group 3, […] were intraperitoneally injected with 40 mg/kg EFL2. […] All animal experiments were conducted in accordance with ethical regulation for animal care and use in China.
as §2
Background: In an ELISA, binding on a coated surface is turned into a signal by an enzyme label.

Series [3] concerns TLR7 (R837) induced cytokine production in PBMCs. Description: ELISA of IL-1β and IL-6 in supernatant of R837 stimulated PBMCs. To be noted: R837-stimulated human PBMCs. It is filed as cell-based, human. As to the method:
as §1
RAW264.7 cells (5×10^5/ml), BMDMs (5×10^5/ml) and PBMCs (2×10^6/ml) were plated in 96-well plates and incubated overnight. […]
as §2

The subject of another series is PBMCs. Description: Cell viability, CCK8 assay, PBMCs. The settings on record: CCK8, at 100 μM. It is filed as cell-based, human. As to the method: as §1
The effects of EFL2 on RAW264.7 cells, BMDMs and PBMCs viability were evaluated by Cell Counting Kit-8 (CCK8) assay (Dojindo, Japan). […] The optical absorbance at 450 nm was read with a Biotek Eon™ microplate reader (Biotek, Vermont, United States).

The target of the next series is T1, IRF5 (Mus musculus, UniProt P56477).
T1 construct: host or cells: RAW264.7
T1 sequence (P56477 whole entry): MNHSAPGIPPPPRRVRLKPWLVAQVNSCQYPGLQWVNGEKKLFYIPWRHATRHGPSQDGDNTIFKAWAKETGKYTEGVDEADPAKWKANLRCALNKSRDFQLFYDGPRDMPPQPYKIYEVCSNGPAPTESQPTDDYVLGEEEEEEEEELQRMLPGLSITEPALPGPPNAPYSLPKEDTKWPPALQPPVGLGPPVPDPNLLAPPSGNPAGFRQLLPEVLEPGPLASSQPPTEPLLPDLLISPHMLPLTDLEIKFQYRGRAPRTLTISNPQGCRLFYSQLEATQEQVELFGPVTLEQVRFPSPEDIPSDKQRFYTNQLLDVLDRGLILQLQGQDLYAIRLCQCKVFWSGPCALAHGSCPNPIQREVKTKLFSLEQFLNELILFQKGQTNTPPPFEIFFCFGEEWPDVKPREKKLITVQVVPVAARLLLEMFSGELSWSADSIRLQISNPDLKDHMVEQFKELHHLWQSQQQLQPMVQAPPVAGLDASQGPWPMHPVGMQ
In words: IRF5 plasmid transfection (overexpression) in RAW264.7 cells. It is filed as cell-based. To be noted: RAW264.7 transfected with IRF5 plasmid. As to the method: RAW264.7 cells (4×10^5 cells/well) were seeded into 6-well plates before transfection with the plasmid. When cells confluency reached 60%, RAW264.7 cells were transfected with plasmid IRF5-mouse vector (Origene, United States) using TransEasy™ Transfection Reagent (FOREGENE, China). IRF5 plasmid was suspended with transfection reagent as 1:1.5. Cells were incubated at 37°C for 24 h, then treated with EFL2 and R837 for another 24 h. The supernatant was collected for IL-1β and IL-6 measurements using ELISA kits as described above. For western blot detection, RAW264.7 cells were pretreated with EFL2 (10 µM) for 1 h and stimulated with R837 (20 μg/ml) for 40 min after IRF5 plasmid transfection. Cell lysates were prepared as described above.

Consider `C=C1C(OC(=O)c2ccccc2)CC2C(C=C(C)C(=O)C3(OC(C)=O)CC(C)C(OC(=O)c4ccccc4)C3C1OC(C)=O)C2(C)C` (centres unmarked) [EFL2, Euphorbia factor L2], for which the “levels of IL-1β and IL-6 in the supernatant” value in series [1] (BMDMs co-stimulated by poly (I:C) and R837, various concentrations of EFL2) was “to different expent decreased”. Besides, the IL-6 production result in series [1] (R837-stimulated BMDMs, EFL2 0.1-10 μM) is “dose-dependently reduced”. For the same molecule, the IL-1β secretion result in series [1] (R837-stimulated BMDMs, EFL2 at 0.1 μM) is reported as “effectively inhibit”. Further, the “IL-6 level in sera” value was “only effectively inhibited” in series [2] (STA mice, EFL2 15 mg/kg i.p., day 8) and “significantly reduced” in series [2] (STA mice, EFL2 40 mg/kg i.p.). Further, in series [2] (STA mice, EFL2 40 mg/kg i.p.), the “IL-1β level in sera” value is “significantly reduced”. Also, the “TNF-α, IL-4 and IL-17A levels in blood (other cytokines)” value in series [2] (control, STA and STA mice treated with DEX or EFL2) is reported as “did not affect”. In addition, the “suppressive effect on IL-1β production compared with IL-6” value in series [3] is given as “prior to that on IL-6”. Further, in the series with PBMCs, the PBMCs viability result was “did not affect”. The “suppressive effect of EFL2 on nuclear translocation of IRF5 after overexpression of IRF5” value at IRF5 (EFL2 10 μM, R837) is recorded as “significantly reversed”. In addition, the “EFL2-induced reduction of IL-1β and IL-6 after overexpression of IRF5” value on IRF5 (EFL2 and R837 24 h) was “effectively reversed”.
